The results in this text go back to patent US12139520B2 (priority 2020, dated 2024).

Bridge positions count the residues as written; N and C are the ends. Square brackets hold non-standard residues; d marks the D form. Peptide text beside a SMILES is read from it. Hyp = O=C(O)[C@@H]1C[C@@H](O)CN1

The target of one series is hAM1 receptor (Homo sapiens, UniProt O60895+Q16602). Put plainly: cAMP assay for in vitro receptor activation, hAM1-R. It counts as cell-based. To be noted: cAMP assay, hAM1 receptor; read-out: hAM1R EC50. An outline of the steps: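 Receptor activation, read as cAMP, was assessed in thawed cells of a monoclonal hAM1-overexpressing stable line, plated at 8000 cells/well in DPBS supplemented with 0.05% casein and 0.5 mM IBMX.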
hAM1 receptor, sequence (Q16602 23-461): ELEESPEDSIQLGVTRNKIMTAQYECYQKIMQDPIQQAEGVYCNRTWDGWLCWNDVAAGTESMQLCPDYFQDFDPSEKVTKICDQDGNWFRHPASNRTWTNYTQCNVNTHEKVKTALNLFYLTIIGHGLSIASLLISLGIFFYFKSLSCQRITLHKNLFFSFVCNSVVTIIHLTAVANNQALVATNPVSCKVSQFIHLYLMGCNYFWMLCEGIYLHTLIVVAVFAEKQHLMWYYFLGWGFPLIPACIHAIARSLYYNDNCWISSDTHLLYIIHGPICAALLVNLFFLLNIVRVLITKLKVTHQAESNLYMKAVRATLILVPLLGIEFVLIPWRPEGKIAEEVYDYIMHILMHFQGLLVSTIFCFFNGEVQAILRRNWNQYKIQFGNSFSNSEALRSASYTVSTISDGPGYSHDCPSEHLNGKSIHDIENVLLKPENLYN
hAM1 receptor, sequence (O60895 43-175 partner): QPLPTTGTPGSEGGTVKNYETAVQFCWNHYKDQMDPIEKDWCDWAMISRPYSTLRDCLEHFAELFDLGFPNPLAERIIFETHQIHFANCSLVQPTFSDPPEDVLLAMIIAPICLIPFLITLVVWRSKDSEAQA

Series [1] in a line: Physical stability of peptide analogues (Thioflavin T fibrillation). Type of series: physicochemical. To be noted: maximum ThT signal normalized between hAMY maximum and buffer background; 40° C., shaking, four days; pH 7 per table title. An outline of the steps:
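Peptides in 50 mM sodium acetate pH 4 or 50 mM sodium phosphate pH 7 were preincubated 1 h, mixed with 4 μM ThT, held at 40° C with 700 rpm shaking before each read. Fluorescence (ex 450/em 480 nm) every 10 min for four days; LOESS-smoothed maximum signal normalized in percent between hAMY and buffer.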

The next series addresses T1, hAMY3 receptor (Homo sapiens, UniProt O60896+P30988).
T1 sequence (P30988 25-474): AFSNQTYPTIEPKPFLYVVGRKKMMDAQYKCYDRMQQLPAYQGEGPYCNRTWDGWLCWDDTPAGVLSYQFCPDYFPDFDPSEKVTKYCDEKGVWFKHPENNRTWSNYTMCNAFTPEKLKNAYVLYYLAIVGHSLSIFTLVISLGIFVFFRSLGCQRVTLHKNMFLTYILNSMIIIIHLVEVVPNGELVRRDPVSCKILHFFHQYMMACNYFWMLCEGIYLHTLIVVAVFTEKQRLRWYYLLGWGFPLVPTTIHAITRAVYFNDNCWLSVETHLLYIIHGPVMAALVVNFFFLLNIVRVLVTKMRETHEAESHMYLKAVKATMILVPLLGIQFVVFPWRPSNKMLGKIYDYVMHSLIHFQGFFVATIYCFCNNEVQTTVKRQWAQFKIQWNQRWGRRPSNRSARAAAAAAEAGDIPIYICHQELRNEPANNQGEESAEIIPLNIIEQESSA
T1 sequence (O60896 24-148 partner): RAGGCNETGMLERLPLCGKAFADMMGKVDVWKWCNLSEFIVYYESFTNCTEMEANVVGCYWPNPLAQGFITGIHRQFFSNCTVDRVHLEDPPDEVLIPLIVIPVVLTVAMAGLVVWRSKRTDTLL
Put plainly: cAMP assay for in vitro receptor activation, hAMY3-R. Type of series: cell-based. To be noted: cAMP assay, hAMY3 receptor; read-out: hAMY3R EC50. An outline of the steps:
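Monoclonal cell line stably overexpressing hAMY3 receptor, plated in DPBS with 0.05% casein and 0.5 mM IBMX, was stimulated with graded compound doses for 30 min at room temperature. cAMP accumulation was read by time-resolved FRET one hour after adding detection reagents.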

Take `CC[C@H](C)[C@H](NC(=O)[C@H](CCCCN)NC(=O)[C@@H](NC(=O)[C@H](CCCNC(=N)N)NC(=O)[C@@H]1CCCN1C(=O)[C@H](C)NC(=O)[C@@H](NC(=O)[C@H](CC(N)=O)NC(=O)[C@H](CC(=O)O)NC(=O)[C@H](CCCCN)NC(=O)[C@H](CC(=O)O)NC(=O)[C@H](CCCCN)NC(=O)[C@H](CC(=O)O)NC(=O)[C@@H](NC(=O)[C@H](Cc1ccccc1)NC(=O)[C@H](CCC(N)=O)NC(=O)[C@H](Cc1ccc(O)cc1)NC(=O)[C@@H](NC(=O)[C@H](CCC(N)=O)NC(=O)[C@H](Cc1c[nH]cn1)NC(=O)[C@H](C)NC(=O)[C@H](CC(C)C)NC(=O)[C@H](CCCNC(=N)N)NC(=O)[C@H](CCC(N)=O)NC(=O)[C@@H](NC(=O)[C@@H](NC(=O)[C@@H]1CSSC[C@H](NC(=O)CN)C(=O)N[C@@H](CCCNC(=N)N)C(=O)N[C@@H]([C@@H](C)O)C(=O)NCC(=O)N[C@@H]([C@@H](C)O)C(=O)N1)[C@@H](C)O)C(C)C)[C@@H](C)CC)[C@@H](C)O)C(C)C)[C@@H](C)O)C(=O)NCC(=O)N1CCC[C@H]1C(=O)N[C@@H](CC(N)=O)C(=O)NCC(=O)N1C[C@H](O)C[C@H]1C(N)=O` [compound 115] (H-GCRTGTCTVQRLAHQIYQFTDKDKDNVAPRTKIGPNG[Hyp]-NH2; disulfide 2-7; N-terminus assumed): the EC50 on hAM1 receptor is 130 nM. The “Max ThT signal (%)” value in series [1] is 2.500%.

Regarding `CC[C@H](C)[C@H](NC(=O)[C@H](CCC(N)=O)NC(=O)[C@H](Cc1c[nH]cn1)NC(=O)[C@H](C)NC(=O)[C@H](CC(C)C)NC(=O)[C@H](CCCNC(=N)N)NC(=O)[C@H](CCC(N)=O)NC(=O)[C@@H](NC(=O)[C@@H](NC(=O)[C@@H]1CSSC[C@H](NC(=O)CN)C(=O)N[C@@H](CCCNC(=N)N)C(=O)N[C@@H](Cc2ccccc2)C(=O)NCC(=O)N[C@@H]([C@@H](C)O)C(=O)N1)[C@@H](C)O)C(C)C)C(=O)N[C@@H](Cc1ccc(O)cc1)C(=O)N[C@@H](CCC(N)=O)C(=O)N[C@@H](Cc1ccccc1)C(=O)N[C@H](C(=O)N[C@@H](CC(=O)O)C(=O)N[C@@H](CCCCN)C(=O)N[C@@H](CC(=O)O)C(=O)N[C@@H](CCCCN)C(=O)N[C@@H](CC(=O)O)C(=O)N[C@@H](CC(N)=O)C(=O)N[C@H](C(=O)N[C@@H](C)C(=O)N1CCC[C@H]1C(=O)N[C@@H](CCCNC(=N)N)C(=O)N[C@@H](CO)C(=O)N[C@@H](CCCCN)C(=O)N[C@H](C(=O)N[C@@H](CO)C(=O)N1CCC[C@H]1C(=O)N[C@@H](CCC(N)=O)C(=O)N[C@H](C(=O)N1C[C@H](O)C[C@H]1C(N)=O)[C@@H](C)O)[C@@H](C)CC)C(C)C)[C@@H](C)O` [compound 168] (H-GCRFGTCTVQRLAHQIYQFTDKDKDNVAPRSKISPQT[Hyp]-NH2; disulfide 2-7; N-terminus assumed), the EC50 at hAM1 receptor is > 5000 nM. Further, the “Max ThT signal (%)” value in series [1] is 12.500%.

Consider `CC[C@H](C)[C@H](NC(=O)[C@H](CCC(N)=O)NC(=O)[C@H](Cc1c[nH]cn1)NC(=O)[C@H](C)NC(=O)[C@H](CC(C)C)NC(=O)[C@H](CCCNC(=N)N)NC(=O)[C@H](CCC(N)=O)NC(=O)[C@@H](NC(=O)[C@@H](NC(=O)[C@@H]1CSSC[C@H](NC(=O)CN)C(=O)N[C@@H](CCCNC(=N)N)C(=O)N[C@@H](CCSC)C(=O)NCC(=O)N[C@@H]([C@@H](C)O)C(=O)N1)[C@@H](C)O)C(C)C)C(=O)N[C@@H](Cc1ccc(O)cc1)C(=O)N[C@@H](CCC(N)=O)C(=O)N[C@@H](Cc1ccccc1)C(=O)N[C@H](C(=O)N[C@@H](CC(=O)O)C(=O)N[C@@H](CCCCN)C(=O)N[C@@H](Cc1ccccc1)C(=O)N[C@@H](CCCCN)C(=O)N[C@@H](CC(=O)O)C(=O)N[C@@H](CC(N)=O)C(=O)N[C@H](C(=O)N[C@@H](C)C(=O)N1CCC[C@H]1C(=O)N[C@@H](CCCNC(=N)N)C(=O)N[C@@H](CO)C(=O)N[C@@H](CCCCN)C(=O)N[C@H](C(=O)N[C@@H](CO)C(=O)N1CCC[C@H]1C(=O)N[C@@H](CCC(N)=O)C(=O)N[C@H](C(=O)N1C[C@H](O)C[C@H]1C(N)=O)[C@@H](C)O)[C@@H](C)CC)C(C)C)[C@@H](C)O` [compound 173] (H-GCRMGTCTVQRLAHQIYQFTDKFKDNVAPRSKISPQT[Hyp]-NH2; disulfide 2-7; N-terminus assumed), for which the EC50 on hAM1 receptor is > 5000 nM. Further, the “Max ThT signal (%)” value in series [1] stood at 4.400%.

As to `CC[C@H](C)[C@H](NC(=O)[C@H](CCC(N)=O)NC(=O)[C@H](Cc1c[nH]cn1)NC(=O)[C@H](C)NC(=O)[C@H](CC(C)C)NC(=O)[C@H](CCCNC(=N)N)NC(=O)[C@H](CCC(N)=O)NC(=O)[C@@H](NC(=O)[C@@H](NC(=O)[C@@H]1CSSC[C@H](NC(=O)CN)C(=O)N[C@@H](CCCNC(=N)N)C(=O)N[C@@H]([C@@H](C)O)C(=O)NCC(=O)N[C@@H]([C@@H](C)O)C(=O)N1)[C@@H](C)O)C(C)C)C(=O)N[C@@H](Cc1c[nH]cn1)C(=O)N[C@@H](CCC(N)=O)C(=O)N[C@@H](Cc1ccccc1)C(=O)N[C@H](C(=O)N[C@@H](CC(=O)O)C(=O)N[C@@H](CCCCN)C(=O)N[C@@H](Cc1ccccc1)C(=O)N[C@@H](CCCCN)C(=O)N[C@@H](CC(=O)O)C(=O)N[C@@H](CC(N)=O)C(=O)N[C@H](C(=O)N[C@@H](C)C(=O)N1CCC[C@H]1C(=O)N[C@@H](CCCNC(=N)N)C(=O)N[C@@H](CO)C(=O)N[C@@H](CCCCN)C(=O)N[C@H](C(=O)N[C@@H](CO)C(=O)N1CCC[C@H]1C(=O)N[C@@H](CCC(N)=O)C(=O)N[C@H](C(=O)N1C[C@H](O)C[C@H]1C(N)=O)[C@@H](C)O)[C@@H](C)CC)C(C)C)[C@@H](C)O` [compound 193] (H-GCRTGTCTVQRLAHQIHQFTDKFKDNVAPRSKISPQT[Hyp]-NH2; disulfide 2-7; N-terminus assumed), the EC50 at hAM1 receptor is > 5000 nM. Also, the “Max ThT signal (%)” value in series [1] is recorded as 2.700%.

Turning to `CC[C@H](C)[C@H](NC(=O)[C@H](CCCCN)NC(=O)[C@@H](NC(=O)[C@H](CCCNC(=N)N)NC(=O)[C@@H]1CCCN1C(=O)[C@H](C)NC(=O)[C@@H](NC(=O)[C@H](CC(N)=O)NC(=O)[C@H](CC(=O)O)NC(=O)[C@H](CCCCN)NC(=O)[C@H](CC(=O)O)NC(=O)[C@H](CCCCN)NC(=O)[C@H](CC(=O)O)NC(=O)[C@@H](NC(=O)[C@H](Cc1ccccc1)NC(=O)[C@H](CCC(N)=O)NC(=O)[C@H](Cc1ccc(O)cc1)NC(=O)[C@H](CC(C)C)NC(=O)[C@H](Cc1ccccc1)NC(=O)[C@H](Cc1c[nH]cn1)NC(=O)[C@H](C)NC(=O)[C@H](CC(C)C)NC(=O)[C@H](CCCNC(=N)N)NC(=O)[C@H](CCC(N)=O)NC(=O)[C@@H](NC(=O)[C@@H](NC(=O)[C@@H]1CSSC[C@H](NC(=O)CN)C(=O)N[C@@H](CCCNC(=N)N)C(=O)N[C@@H](Cc2ccccc2)C(=O)NCC(=O)N[C@@H]([C@@H](C)O)C(=O)N1)[C@@H](C)O)C(C)C)[C@@H](C)O)C(C)C)[C@@H](C)O)C(=O)NCC(=O)N[C@@H](CO)C(=O)N[C@@H](CC(N)=O)C(=O)NCC(=O)N[C@@H](Cc1ccc(O)cc1)C(N)=O` [compound 376] (H-GCRFGTCTVQRLAHFLYQFTDKDKDNVAPRTKIGSNGY-NH2; disulfide 2-7; N-terminus assumed), the EC50 at hAM1 receptor was determined as 12 nM; at hAMY3 receptor, 0.022 nM.
